In ChEMBL document CHEMBL5528054, “Novel Cocrystal Structures of Peptide Antagonists Bound to the Human Melanocortin Receptor 4 Unveil Unexplored Grounds for Structure-Based Drug Design” (J Med Chem, 2024):
Calls of active or inactive are those of the source. No cut-off for these calls is given here.

Legend:
[1] = target: T1, Melanocyte-stimulating hormone receptor (Homo sapiens, UniProt Q01726); test: Partial agonist activity at C-terminal HA-tagged human MC1-R stably expressed in HEK293 cells co-expressing GScAMP22P cAMP reporter assessed as inhibition of alpha-MSH induced cAMP production by cell based luminescence assay; type: functional
Target sequence in this assay (Q01726 whole entry): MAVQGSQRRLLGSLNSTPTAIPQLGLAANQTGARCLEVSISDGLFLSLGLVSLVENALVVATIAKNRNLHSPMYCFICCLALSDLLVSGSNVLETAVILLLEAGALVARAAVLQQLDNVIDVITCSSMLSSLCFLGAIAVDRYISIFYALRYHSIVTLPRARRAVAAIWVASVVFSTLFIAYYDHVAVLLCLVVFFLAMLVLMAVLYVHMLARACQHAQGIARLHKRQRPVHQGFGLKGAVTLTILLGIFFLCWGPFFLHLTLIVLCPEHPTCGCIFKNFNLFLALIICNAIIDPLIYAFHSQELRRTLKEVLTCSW

[2] = target: T1, Melanocyte-stimulating hormone receptor; test: Partial agonist activity at C-terminal HA-tagged human MC1-R stably expressed in HEK293 cells co-expressing GScAMP22P cAMP reporter assessed as inhibition of alpha-MSH induced cAMP production by cell based luminescence assay relative to control; type: functional; design: concentration or dose not given beside the values; settings: filed as partial agonist, concentration not given here
Target sequence in this assay (Q01726 whole entry, looked up): as the sequence (Q01726 whole entry) above

[3] = system: T-REx-293; test: Inhibition of Kir7.1 […] mutant (unknown origin) expressed in human T-REx-293 cells co-expressing human MC4-R assessed as decrease in K+ conductance at 10 uM incubated for 24 hrs by high-throughput automated patch clamp analysis; type: cell-based
[4] = target: T2, Melanocortin receptor 4 (Homo sapiens, UniProt P32245); test: Antagonist activity at C-terminal HA-tagged human MC4-R stably expressed in HEK293 cells co-expressing GScAMP22P cAMP reporter assessed as inhibition of alpha-MSH induced cAMP production by cell based luminescence assay; type: functional; settings: read-out: IC50
[5] = target: Melanocortin receptor 3 (Homo sapiens, UniProt P41968); test: Antagonist activity at C-terminal HA-tagged human MC3-R stably expressed in HEK293 cells co-expressing GScAMP22P cAMP reporter assessed as inhibition of alpha-MSH induced cAMP production by cell based luminescence assay; type: functional
[6] = system: HEK293; test: (§1) Selectivity ratio of IC50 for C-terminal HA-tagged human MC4-R stably expressed in HEK293 cells co-expressing GScAMP22P cAMP reporter assessed as inhibition of alpha-MSH induced cAMP production to IC50 for C-terminal HA-tagged human MC1-R stably expressed in HEK293 cells co-expressing GScAMP22P cAMP reporter assessed as inhibition of alpha-MSH induced cAMP production; type: cell-based
[7] = system: HEK293; test: as §1, with “MC3-R” for “MC1-R”; type: cell-based
[8] = system: Mus musculus; test: In vivo activation of Kir7.1 channel in cannulated C57BL/6J mouse assessed as increase in food intake at 500 pM,ICV administration and measured after 6 hrs; type: functional
[9] = system: Mus musculus; test: In vivo activation of Kir7.1 channel in cannulated C57BL/6J mouse assessed as increase in food intake at 500 pM,ICV administration for 7 days; type: functional; settings: time 7.0 day
[10] = system: Melanocortin receptor 4 (Homo sapiens), P32245 [E100A]; test: Agonist activity at N-terminal fused BRIL-Flag tagged human MC4-R E100A mutant transiently transfected in HEK293 cells assessed as fold change in cAMP accumulation by ELISA; type: cell-based; settings: filed as agonist
[11] = system: Melanocortin receptor 4 (Homo sapiens), P32245 [D122A]; test: Agonist activity at N-terminal fused BRIL-Flag tagged human MC4-R D122A mutant transiently transfected in HEK293 cells assessed as fold change in cAMP accumulation by ELISA; type: functional, cell-based; settings: filed as agonist
[12] = system: Melanocortin receptor 4 (Homo sapiens), P32245 [D126A]; test: Agonist activity at N-terminal fused BRIL-Flag tagged human MC4-R D126A mutant transiently transfected in HEK293 cells assessed as fold change in cAMP accumulation by ELISA; type: cell-based; settings: filed as agonist
[13] = system: HEK293; test: Selectivity ratio of EC50 for agonist activity at N-terminal FLAG tagged MC4-R (unknown origin) transiently transfected in HEK293 cells to EC50 for agonist activity at N-terminal FLAG tagged MC1-R (unknown origin) transiently transfected in HEK293 cells; type: cell-based
[14] = target: T2, Melanocortin receptor 4; settings: HEK293, filed as antagonist, time 1.0 hrs
[15] = system: HEK293; test: Selectivity ratio of IC50 for C-terminal HA-tagged human MC1-R stably expressed in HEK293 cells co-expressing GScAMP22P cAMP reporter assessed as inhibition of alpha-MSH induced cAMP production to IC50 for C-terminal HA-tagged human MC4-R stably expressed in HEK293 cells co-expressing GScAMP22P cAMP reporter assessed as inhibition of alpha-MSH induced cAMP production; type: cell-based
[16] = system: Mus musculus; test: In vivo activation of Kir7.1 channel in cannulated C57BL/6J mouse assessed as increase in food intake at 500 pM,ICV administration and measured after 4 hrs; type: functional
[17] = system: Mus musculus; test: In vivo activation of Kir7.1 channel in cannulated C57BL/6J mouse assessed as increase in food intake at 500 pM,ICV administration and measured upto 24 hrs; type: functional

Chain of Melanocortin receptor 3 (P41968 whole entry): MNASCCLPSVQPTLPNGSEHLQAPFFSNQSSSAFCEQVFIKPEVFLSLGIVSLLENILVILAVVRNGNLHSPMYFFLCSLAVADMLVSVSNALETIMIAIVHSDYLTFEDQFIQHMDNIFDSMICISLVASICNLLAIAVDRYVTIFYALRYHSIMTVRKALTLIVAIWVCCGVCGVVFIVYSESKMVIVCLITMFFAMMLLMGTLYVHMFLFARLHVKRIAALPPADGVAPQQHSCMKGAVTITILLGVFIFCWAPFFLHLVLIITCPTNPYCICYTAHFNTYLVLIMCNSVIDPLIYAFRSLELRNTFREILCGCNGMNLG
T2 sequence (P32245 whole entry): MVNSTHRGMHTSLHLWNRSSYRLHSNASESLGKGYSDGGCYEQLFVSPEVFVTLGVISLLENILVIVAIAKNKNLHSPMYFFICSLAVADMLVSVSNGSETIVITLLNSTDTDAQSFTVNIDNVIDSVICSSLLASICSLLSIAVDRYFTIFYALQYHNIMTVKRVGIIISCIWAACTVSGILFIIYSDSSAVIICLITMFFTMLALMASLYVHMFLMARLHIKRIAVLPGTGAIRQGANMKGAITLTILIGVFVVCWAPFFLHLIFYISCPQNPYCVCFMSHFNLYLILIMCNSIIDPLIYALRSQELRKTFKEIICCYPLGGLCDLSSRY
Chain of Melanocortin receptor 4 (Homo sapiens), P32245 [D122A] (P32245 whole entry D122A, the tested form may be a part): as the sequence (P32245 whole entry) above, with D122A counted along it
Chain of Melanocortin receptor 4 (Homo sapiens), P32245 [D126A] (P32245 whole entry D126A, the tested form may be a part): as the sequence (P32245 whole entry) above, with D126A counted along it
Chain of Melanocortin receptor 4 (Homo sapiens), P32245 [E100A] (P32245 whole entry E100A, the tested form may be a part): as the sequence (P32245 whole entry) above, with E100A counted along it

| Structure (SMILES) | IC50 [1] [nM] | inhibition [2] [%] | IC50 [4] [nM] | IC50 ([5]; read-out: IC50) [nM] | Ratio IC50 [6] | Ratio IC50 [7] | other results |
| --- | --- | --- | --- | --- | --- | --- | --- |
| CCCCC(NC(C)=O)C(=O)N[C@H]1CC(=O)NCCCC[C@@H](C(N)=O)NC(=O)CNC(=O)[C@H](Cc2c[nH]c3ccccc23)NC(=O)[C@H](CCCNC(=N)N)NC(=O)[C@@H](Cc2ccc3ccccc3c2)NC(=O)[C@@H]2C[C@@H](n3cc(C(C)(C)N)nn3)CN2C1=O (stereo not given in full) |  | 86.7 |  |  | 0.4 | 16.7 | Activity [8]: Active; Activity [9]: Active |
| CC(=O)N[C@@H](CCCNC(=N)N)C(=O)N[C@H]1CSSC[C@@H](C(N)=O)NC(=O)[C@H](Cc2c[nH]c3ccccc23)NC(=O)[C@H](CCCNC(=N)N)NC(=O)[C@@H](Cc2ccccc2)NC(=O)[C@H](Cc2c[nH]cn2)NC(=O)[C@@H](C)NC1=O |  |  |  |  |  |  | fold change (FC) [10]: 2; fold change (FC) [11]: 2; fold change (FC) [12]: 205; Ratio EC50 [13]: 20 |
| CCCC[C@H](NC(C)=O)C(=O)N[C@H]1CC(=O)NCCCC[C@@H](C(N)=O)NC(=O)CNC(=O)[C@H](Cc2c[nH]c3ccccc23)NC(=O)[C@H](CCCNC(=N)N)NC(=O)[C@@H](Cc2ccc3ccccc3c2)NC(=O)[C@@H]2C[C@H](n3cc(-c4ccccn4)nn3)CN2C1=O | 204 | 87.2 | 6.78 | 31.5 | 30.1 | 4.5 |  |
| CCCCCCc1cn([C@H]2C[C@H]3C(=O)N[C@H](Cc4ccc5ccccc5c4)C(=O)N[C@@H](CCCNC(=N)N)C(=O)N[C@@H](Cc4c[nH]c5ccccc45)C(=O)NCC(=O)N[C@H](C(N)=O)CCCCNC(=O)C[C@H](NC(=O)[C@H](CCCC)NC(C)=O)C(=O)N3C2)nn1 | 68.9 | 83.5 | 9.92 | 59.5 | 7 | 6 |  |
| CCCC[C@H](NC(C)=O)C(=O)N[C@H]1CC(=O)NCCCC[C@@H](C(N)=O)NC(=O)[C@@H](Cc2ccccc2)NC(=O)[C@H](CCCN=C(N)N)NC(=O)[C@@H](Cc2ccc3ccccc3c2)NC(=O)[C@@H]2CCCN2C1=O |  |  |  |  |  |  | Tm [14]: 62.6 °C |
| CCCC[C@H](NC(C)=O)C(=O)N[C@H]1CC(=O)NCCCC[C@@H](C(N)=O)NC(=O)CNC(=O)[C@H](Cc2c[nH]c3ccccc23)NC(=O)[C@H](CCCNC(=N)N)NC(=O)[C@@H](Cc2ccc3ccccc3c2)NC(=O)[C@@H]2C[C@H](n3cc(C(C)(C)N)nn3)CN2C1=O | 2.53 | 83.8 | 5.01 | 34.3 | 0.5 | 6.8 | Activity [16]: inactive; Activity [17]: inactive |
| CCCC[C@H](NC(C)=O)C(=O)N[C@H]1CC(=O)NCCCC[C@@H](C(N)=O)NC(=O)CNC(=O)[C@H](Cc2c[nH]c3ccccc23)NC(=O)[C@H](CCCNC(=N)N)NC(=O)[C@@H](Cc2ccc3ccccc3c2)NC(=O)[C@@H]2C[C@H](NC(=O)[C@@H](N)CCCN)CN2C1=O | 0.25 | 85.1 | 2.97 | 8.96 | 0.1 | 3 | Ratio IC50 [15]: 12 |

More lines, main results first:

| IC50 [1] [nM] | inhibition [2] [%] | IC50 [4] [nM] | IC50 ([5]; read-out: IC50) [nM] | Structure (SMILES) | Ratio IC50 [6] | Ratio IC50 [7] | other results |
| --- | --- | --- | --- | --- | --- | --- | --- |
| 299 | 86.8 |  |  | CCCC[C@H](NC(C)=O)C(=O)N[C@H]1CC(=O)NCCCC[C@@H](C(N)=O)NC(=O)[C@H](CCCNC(=N)N)NC(=O)[C@H](Cc2c[nH]c3ccccc23)NC(=O)[C@H](CCCNC(=N)N)NC(=O)[C@@H](Cc2ccc3ccccc3c2)NC(=O)[C@@H]2CCCN2C1=O |  |  | inhibition [3]: Active |
| 53.6 | 84.7 | 5.41 | 26.4 | CCCC[C@H](NC(C)=O)C(=O)N[C@H]1CC(=O)NCCCC[C@@H](C(N)=O)NC(=O)CNC(=O)[C@H](Cc2c[nH]c3ccccc23)NC(=O)[C@H](CCCNC(=N)N)NC(=O)[C@@H](Cc2ccc3ccccc3c2)NC(=O)[C@@H]2C[C@H](n3cc(-c4ccccc4)nn3)CN2C1=O | 9.9 | 4.9 |  |
| 1.71 | 85.5 | 4.48 | 42.5 | CCCC[C@H](NC(C)=O)C(=O)N[C@H]1CC(=O)NCCCC[C@@H](C(N)=O)NC(=O)CNC(=O)[C@H](Cc2c[nH]c3ccccc23)NC(=O)[C@H](CCCNC(=N)N)NC(=O)[C@@H](Cc2ccc3ccccc3c2)NC(=O)[C@@H]2C[C@H](n3cc(CCN)nn3)CN2C1=O | 0.4 | 9.5 |  |
| 389 | 86.4 | 18.8 | 130 | CCCC[C@H](NC(C)=O)C(=O)N[C@H]1CC(=O)NCCCC[C@@H](C(N)=O)NC(=O)CNC(=O)[C@H](Cc2c[nH]c3ccccc23)NC(=O)[C@H](CCCNC(=N)N)NC(=O)[C@@H](Cc2ccc3ccccc3c2)NC(=O)[C@@H]2C[C@H](n3cc(CCC(=O)O)nn3)CN2C1=O | 20.8 | 6.9 |  |
| 0.2 | 80.7 | 2.83 | 5.64 | CCCC[C@H](NC(C)=O)C(=O)N[C@H]1CC(=O)NCCCC[C@@H](C(N)=O)NC(=O)CNC(=O)[C@H](Cc2c[nH]c3ccccc23)NC(=O)[C@H](CCCNC(=N)N)NC(=O)[C@@H](Cc2ccc3ccccc3c2)NC(=O)[C@@H]2C[C@H](NC(=O)[C@@H](N)CCC(=O)O)CN2C1=O | 0.1 | 2 | Ratio IC50 [15]: 14 |
| 12 | 89.2 |  | 5.08 | CCCC[C@H](NC(C)=O)C(=O)N[C@H]1CC(=O)NCCCC[C@@H](C(N)=O)NC(=O)CNC(=O)[C@H](Cc2c[nH]c3ccccc23)NC(=O)[C@H](CCCN=C(N)N)NC(=O)[C@@H](Cc2ccc3ccccc3c2)NC(=O)[C@@H]2CCCN2C1=O |  |  | IC50 ([5]; read-out: pIC50 (converted)): 5.5 nM; inhibition [3]: Active |
